The source of these data is patent US20230060425A1, “FUSED BICYCLIC HETEROCYCLE DERIVATIVES AS PESTICIDES” (Bayer Aktiengesellschaft, priority 2019, published 2023).

Holding throughout (assay type): in vivo
Assay [1] has as its system Myzus persicae. Kind of assay: Myzus persicae spray test. Particulars: foliar, 120 h, application rate 100 g/ha, Chinese cabbage leaf discs, after 5 days, read-out: efficacy. Here is the method: Myzus persicae—Spray Test
Solvent: • 78 parts by weight of acetone • 1.5 parts by weight of dimethylformamide
(§1) Emulsifier: alkylaryl polyglycol ether
(§2) To produce a suitable active compound preparation, 1 part by weight of active compound is dissolved using the stated parts by weight of solvent and made up with water containing an emulsifier concentration of 1000 ppm until the desired concentration is attained. To produce further test concentrations, the formulation is diluted with emulsifier-containing water.
Discs of Chinese cabbage leaves (Brassica pekinensis) infested by all stages of the green peach aphid (Myzus persicae) are sprayed with an active compound formulation of the desired concentration.
(§3) After 5 days, the efficacy in % is determined. 100% means that all the aphids have been killed; 0% means that no aphids have been killed.

In assay [2] the test system is Aphis gossypii. Kind of assay: Aphis gossypii spray test (APHIGO S). Particulars: 144 h, 6 dat, read-out: % Efficacy. Here is the method:
Aphis gossypii—Spray Test (APHIGO S)
(§4) Solvent: 14 parts by weight of dimethylformamide
as §1
To produce a suitable active compound preparation, 1 part by weight of active compound is dissolved using the stated parts by weight of solvent and made up with water containing an emulsifier concentration of 1000 ppm until the desired concentration is attained. To produce further test concentrations, the formulation is diluted with emulsifier-containing water. If the addition of ammonium salts or/and penetrants is required, these are each added in a concentration of 1000 ppm to the formulation solution.
Cotton plants (Gossypium hirsutum) heavily infested by the cotton aphid (Aphis gossypii) are sprayed with an active compound formulation of the desired concentration.
After the desired time, the kill in % is determined. 100% means that all the aphids have been killed; 0% means that no aphids have been killed.

The test system of assay [3] is Spodoptera frugiperda. The assay is described as follows: Spodoptera frugiperda spray test. To be noted: foliar, 168 h, application rate 100 g/ha, maize leaf discs, after 7 days, read-out: efficacy. As for the experimental part: Spodoptera frugiperda—Spray Test
(§5) Solvent: • 78.0 parts by weight of acetone • 1.5 parts by weight of dimethylformamide
as §1
To produce further test concentrations, the formulation is diluted with emulsifier-containing water.
After 7 days, the efficacy in % is determined. 100% means that all the caterpillars have been killed; 0% means that no caterpillar has been killed.

In assay [4] the test system is Myzus persicae. The assay is described as follows: Myzus persicae oral test. Particulars: 120 h, application rate 4 ppm, after 5 days, read-out: efficacy. As for the experimental part:
Solvent: 100 parts by weight of acetone
To produce a suitable preparation of active compound, 1 part by weight of active compound is dissolved using the specified parts by weight of solvent and made up with water until the desired concentration is attained.
50 μl of the active compound preparation are transferred into microtitre plates and made up to a final volume of 200 μl with 150 μl of IPL41 insect medium (33%+15% sugar). Subsequently, the plates are sealed with parafilm, which a mixed population of green peach aphids (Myzus persicae) within a second microtitre plate is able to puncture and imbibe the solution through it.
as §3

In assay [5] the test system is Spodoptera frugiperda. The assay is described as follows: Spodoptera frugiperda test on maize plants (SPODFR S). Particulars: 6 dai, read-out: % Efficacy. As for the experimental part:
Spodoptera frugiperda Test (SPODFR S)
as §4
(§6) Emulsifier: 2 parts by weight of alkylaryl polyglycol ether
(§7) To produce a suitable active compound formulation, 1 part by weight of active compound is dissolved with the stated parts by weight of solvent and emulsifier and made up to the desired concentration with water. To produce further test concentrations, water is used for dilution. In the event that addition of ammonium salts or/and penetrants (rapeseed oil methyl ester) is required, these are each pipetted in at a concentration of 1000 ppm after the finished formulation solution has been diluted.
Maize plants (Zea mays) are sprayed with an active compound formulation of the desired concentration and, in each case after 5, 12 and 19 days, populated with 5 caterpillars (L2) of the fall armyworm (Spodoptera frugiperda).
(§8) The kill is determined 6 days after the infection. 100% means that all the caterpillars have been killed and 0% means that none of the caterpillars have been killed.

Assay [6] has as its system Phaedon cochleariae. Kind of assay: Phaedon cochleariae spray test. Particulars: foliar, 168 h, application rate 100 g/ha, Chinese cabbage leaf discs, after 7 days, read-out: efficacy. Here is the method: Phaedon cochleariae—Spray Test
as §5, §1, §2
Discs of Chinese cabbage leaves (Brassica pekinensis) are sprayed with an active compound formulation of the desired concentration and, after drying, populated with larvae of the mustard beetle (Phaedon cochleariae).
After 7 days, the efficacy in % is determined. 100% means that all the beetle larvae have been killed; 0% means that no beetle larvae have been killed.

Assay [7] concerns Spodoptera frugiperda. The assay is described as follows: Spodoptera frugiperda spray test (SPODFR), comparative. To be noted: 168 h, 0.8 g of ai/ha, 7 dat, read-out: % Efficacy. As for the experimental part: Spodoptera frugiperda—Spray Test (SPODFR)
as §5, §1, §2
Leaf discs of maize (Zea mays) are sprayed with an active compound formulation of the desired concentration and, after drying, populated with caterpillars of the armyworm (Spodoptera frugiperda).
After the desired period of time, the efficacy in % is determined. 100% means that all the caterpillars have been killed; 0% means that no caterpillar has been killed.

The test system of assay [8] is Ctenocephalides felis. Kind of assay: Ctenocephalides felis in vitro contact test with adult cat fleas. To be noted: application rate 5 μg/cm^2 (=500 g/ha); after 48 h; fleas dead or moribund. As for the experimental part: Ctenocephalides felis—In Vitro Contact Tests with Adult Cat Fleas
(§9) For the coating of the test tubes, 9 mg of active compound are first dissolved in 1 ml of acetone p.a. and then diluted to the desired concentration with acetone p.a. 250 μl of the solution are distributed homogeneously on the inner walls and the base of a 25 ml glass tube by turning and rocking on an orbital shaker (rocking rotation at 30 rpm for 2 h). With 900 ppm of active compound solution and internal surface area 44.7 cm^2, given homogeneous distribution, an area-based dose of 5 μg/cm^2 is achieved.
After the solvent has evaporated off, the tubes are populated with 5-10 adult cat fleas (Ctenocephalides felis), sealed with a perforated plastic lid and incubated in a horizontal position at room temperature and ambient humidity. After 48 h, efficacy is determined. To this end, the tubes are stood upright and the fleas are knocked to the base of the tube. Fleas which remain motionless at the base or move in an uncoordinated manner are considered to be dead or moribund.
100% efficacy means that all the fleas were dead or moribund. 0% efficacy means that no fleas were harmed.

The test system of assay [9] is Myzus persicae. Kind of assay: Myzus persicae spray test (MYZUPE), comparative. Particulars: 120 h, 5 dat, read-out: % Efficacy. Here is the method:
Myzus persicae—Spray Test (MYZUPE)
as §5, §1, §2
Discs of Chinese cabbage leaves (Brassica pekinensis) infested by all stages of the green peach aphid (Myzus persicae) are sprayed with an active compound preparation of the desired concentration.
After the desired period of time, the efficacy in % is determined. 100% means that all the aphids have been killed; 0% means that no aphids have been killed.

Assay [10] concerns Rhipicephalus sanguineus. Kind of assay: Rhipicephalus sanguineus in vitro contact test with adult brown dog ticks. Particulars: application rate 5 μg/cm^2; after 48 h; ticks dead or moribund. As for the experimental part: Rhipicephalus sanguineus—In Vitro Contact Tests with Adult Brown Dog Ticks
as §9
After the solvent has evaporated off, the tubes are populated with 5-10 adult dog ticks (Rhipicephalus sanguineus), sealed with a perforated plastic lid and incubated in a horizontal position in the dark at room temperature and ambient humidity. After 48 h, efficacy is determined. To this end, the ticks are knocked to the base of the tube and incubated on a hotplate at 45-50° C. for not more than 5 min. Ticks which remain motionless on the base or move in such an uncoordinated manner that they are unable to deliberately avoid the heat by climbing upwards are considered to be dead or moribund.
An efficacy of 100% means that all the ticks were dead or moribund. 0% efficacy means that none of the ticks were harmed.

Assay [11] relates to Lucilia cuprina. The assay is described as follows: Lucilia cuprina test. To be noted: application rate 100 ppm; L1 larvae; after 2 days. As for the experimental part: (§10) Solvent: Dimethyl sulfoxide
To produce a suitable active compound formulation, 10 mg of active compound are mixed with 0.5 ml of dimethyl sulfoxide, and the concentrate is diluted with water to the desired concentration.
About 20 L1 larvae of the Australian sheep blowfly (Lucilia cuprina) are transferred into a test vessel containing minced horsemeat and the active compound formulation of the desired concentration.
After 2 days, the kill in % is determined. 100% means that all the larvae have been killed; 0% means that no larvae have been killed.

The test system of assay [12] is Ctenocephalides felis. Kind of assay: Ctenocephalides felis oral test. Particulars: 48 h, application rate 100 ppm, in citrated cattle blood, after 2 days, read-out: efficacy (kill in %). Here is the method: Ctenocephalides felis—Oral Test
as §10
To produce a suitable active compound formulation, 10 mg of active compound are mixed with 0.5 ml of dimethyl sulfoxide. Dilution with citrated cattle blood gives the desired concentration.
About 20 unfed adult cat fleas (Ctenocephalides felis) are placed into a chamber which is closed at the top and bottom with gauze. A metal cylinder whose bottom end is closed with parafilm is placed onto the chamber. The cylinder contains the blood/active compound formulation, which can be imbibed by the fleas through the parafilm membrane.
After 2 days, the kill in % is determined. 100% means that all of the fleas have been killed; 0% means that none of the fleas have been killed.

The subject of assay [13] is Plutella xylostella. The assay is described as follows: Plutella xylostella test (PLUTMA S). To be noted: 456 h, infection 19 dat, 6 dai, read-out: % Efficacy. As for the experimental part:
Plutella xylostella Test (PLUTMA S)
as §4, §6, §7
Cabbage plants (Brassica oleracea var. sabauda) are sprayed with an active compound formulation of the desired concentration and, after 19 days, populated with 10 caterpillars (L2 larvae) of the diamond back moth (Plutella xylostella).
as §8

The structures appear in SMILES notation. Where two headings read alike, the source gives them in different places.

With `CCS(=O)(=O)c1c(-c2nc3cc(C(F)(F)F)cnc3n2C)ncc2c(C(F)(F)F)cccc12` [Example I-032], the pest or weed control at 100 g/ha in assay [1], in [3] and in [6] was 100% throughout. Also, in [2], the Emax at 4 ppm is 90%. The pest or weed control at 4 ppm in [4] is 100%. The Emax at 0.16 ppm was 100% in assay [5] (120 h, infection 5 dat) and 70% in assay [5] (288 h, infection 12 dat). The Emax at 0.8 ppm in assay [5] (288 h, infection 12 dat) was 100%. The Emax at 0.8 g/ha in assay [7] is 100%. In addition, the efficacy in assay [8] and in assay [10] was 100% each time. Also, the Emax at 4 g/ha in assay [9] (4 g of ai/ha) turned out to be 90%. In addition, in assay [9] (20 g of ai/ha), the Emax at 20 g/ha was 100%.
For `CCS(=O)(=O)c1ccc2c(S(=O)(=O)CC)c(-c3nc4cc(C(F)(F)F)cnc4n3C)ncc2c1` [Example I-034, 4,7-Bis(ethylsulfonyl)-3-[3-methyl-6-(trifluoromethyl)imidazo[4,5-b]pyridin-2-yl]isoquinoline], the pest or weed control at 100 g/ha in assay [1] was 90%; in assay [3] it was 83%. For the same molecule, in assay [11], the “efficacy (kill in %)” value worked out at 100%. In addition, the pest or weed control at 4 ppm in assay [4] was found to be 100%. Besides, the efficacy in assay [8] was 100%. Besides, the pest or weed control at 100 ppm in assay [12] turned out to be 100%.
`CCS(=O)(=O)c1c(-c2nc3cc(C(F)(F)F)cnc3n2C)ncc2cc(OCC(F)(F)F)ccc12` [Example I-036]: the Emax at 0.16 ppm turned out to be 80% in [13]; 90% in [5] (120 h, infection 5 dat); 70% in assay [5] (456 h, infection 19 dat). Also, the pest or weed control at 100 g/ha in [3] is 100%. The pest or weed control at 4 ppm in assay [4] came out at 100%. Moreover, the Emax at 0.8 ppm in assay [5] (456 h, infection 19 dat) came to 100%.
